Reference: patent publication US8895535B2, “Pyrrolidinones as MetAP-2 inhibitors” (Merck Patent GmbH, priority 2010, dated 2014)

Target: MetAP-2 (Homo sapiens, UniProt P50579)
Assay: MetAP-2 activity measurement (coupled enzymatic reactions, substrate Met-Arg-Ser)
Assay type: biochemical
Conditions: Inhibition of MetAP-2; read-out: IC50 enzyme
Description: MetAP-2 Activity Measurement
The MetAP-2 activity is determined by coupling enzymatic reactions. The tripeptide Met-Arg-Ser (MAS) is employed as substrate. The methionine liberated is firstly converted into Metox and H2O2 by L-aminooxidase (AAO).
MetAP-2 activity can be recorded continuously as kinetics. The reaction scheme illustrates that one mol of dianisidineox is formed per mol of methionene. The MetAP-2 enzyme activity can therefore be calculated directly as Δ absorption per time unit. […] of the MetAP-2 activity (mol of Met/time unit) is possible with the aid of the dianisidineox extinction coefficient.
The change in extinction per time unit is depicted graphically and a slope calculation is carried out in the visually linear region of the reaction.

Sequence of MetAP-2 (P50579 whole entry, species assumed): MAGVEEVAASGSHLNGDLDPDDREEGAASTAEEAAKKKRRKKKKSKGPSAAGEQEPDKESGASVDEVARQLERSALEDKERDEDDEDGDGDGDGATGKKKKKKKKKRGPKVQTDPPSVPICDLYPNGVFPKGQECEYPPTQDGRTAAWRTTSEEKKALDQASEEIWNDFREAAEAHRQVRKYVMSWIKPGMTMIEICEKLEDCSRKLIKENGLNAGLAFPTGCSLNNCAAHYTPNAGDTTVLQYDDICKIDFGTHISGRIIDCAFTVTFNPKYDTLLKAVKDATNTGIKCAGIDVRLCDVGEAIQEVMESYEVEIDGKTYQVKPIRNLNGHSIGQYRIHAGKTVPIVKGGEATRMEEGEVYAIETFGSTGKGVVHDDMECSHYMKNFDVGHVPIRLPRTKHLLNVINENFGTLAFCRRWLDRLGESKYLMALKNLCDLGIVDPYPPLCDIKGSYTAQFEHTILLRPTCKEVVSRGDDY

SMILES | IC50
O=C(NCc1cccc(Br)c1)[C@@]1(Cl)CCN(c2ccccc2)C1=O [A39] | > 10000 nM
CC(C)(C)c1cnc(CCNC(=O)[C@@]2(O)CCN(c3ccccc3)C2=O)o1 [A2] | > 10000 nM
O=C(NCc1cccc(Cl)c1F)[C@]1(O)CCN(c2cccc(Cl)c2)C1=O [A68] | 1000 to 10000 nM
CC(C)(C)c1nc(CCNC(=O)[C@@]2(O)CCN(c3ccccc3)C2=O)no1 [A10] | > 10000 nM
O=C(NCc1cccc(Br)c1)[C@]1(O)CCN(c2ccc(F)c(Cl)c2)C1=O [A73] | 1000 to 10000 nM
O=C(NCc1cccc(OC(F)F)c1)[C@@]1(O)CCN(c2ccccc2)C1=O [A6] | 1000 to 10000 nM
Cc1nc(CCNC(=O)[C@@]2(O)CCN(c3ccccc3)C2=O)cs1 [A16] | 1000 to 10000 nM
Cc1ccn(CCNC(=O)[C@@]2(O)CCN(c3ccccc3)C2=O)n1 [A19] | 1000 to 10000 nM
O=C(NCc1ccc2c(c1)OCO2)[C@@]1(O)CCN(c2ccccc2)C1=O [A295] | 1000 to 10000 nM
O=C(N1CCOCC1)[C@@]1(O)CCN(c2ccccc2)C1=O [A300] | > 10000 nM
CC(C)(C)c1noc(CCNC(=O)[C@@]2(O)CCN(c3ccccc3)C2=O)n1 [A34] | > 10000 nM
O=C(NCc1cccc(Br)c1)[C@]1(O)CCN(c2ccccc2)C1=O [A79] | > 10000 nM
O=C(NCc1nc2ccccc2s1)[C@@]1(O)CCN(c2ccccc2)C1=O [A60] | > 10000 nM
CN(Cc1ccsc1)C(=O)[C@@]1(O)CCN(c2ccccc2)C1=O [A321] | > 10000 nM
O=C(NCCc1cc(F)cc(Cl)c1)[C@]1(O)CCN(c2cccc(C(F)(F)F)c2)C1=O [A220] | 1000 to 10000 nM
Cc1nnc(CCNC(=O)[C@@]2(O)CCN(c3ccccc3)C2=O)s1 [A14] | > 10000 nM
O=C(NCc1cccc(N2CCCC2)n1)[C@@]1(O)CCN(c2ccccc2)C1=O [A25] | > 10000 nM
O=C(NCc1cccc(Cl)c1F)[C@]1(O)CCN(c2ccc(F)cc2)C1=O [A67] | 1000 to 10000 nM
O=C(NCc1cccc(Br)c1)[C@]1(O)CCN(c2ccc3ccccc3c2)C1=O [A70] | > 10000 nM
O=C(NCc1cccc(Br)c1)[C@]1(Cl)CCN(c2ccccc2)C1=O [A43] | > 10000 nM
O=C(NCCn1cccn1)[C@@]1(O)CCN(c2ccccc2)C1=O [A44] | 1000 to 10000 nM
O=C(NCCCN1CCOCC1)[C@@]1(O)CCN(c2ccccc2)C1=O [A292] | > 10000 nM
O=C(NCc1ccccn1)[C@@]1(O)CCN(c2ccccc2)C1=O [A26] | > 10000 nM

SMILES | IC50
O=C(NCc1cccc(OC(F)(F)F)c1)[C@@]1(O)CCN(c2ccccc2)C1=O [A8] | 1000 to 10000 nM
O=C(NCc1cc(C(F)(F)F)cc(C(F)(F)F)c1)[C@@]1(O)CCN(c2ccccc2)C1=O [A165] | > 10000 nM
O=C(NCc1cccnc1)[C@@]1(O)CCN(c2ccccc2)C1=O [A24] | 1000 to 10000 nM
O=CN1CCc2cc(N3CC[C@@](O)(C(=O)NCc4cc(F)cc(Cl)c4)C3=O)ccc21 [A285] | > 10000 nM
O=C(NCc1ccc(C(F)(F)F)cc1)[C@@]1(O)CCN(c2ccccc2)C1=O [A333] | > 10000 nM
O=C(NCCN1CCCC1)[C@@]1(O)CCN(c2ccccc2)C1=O [A45] | > 10000 nM
O=C(NCc1cc(C(F)(F)F)cc(C(F)(F)F)c1)[C@@]1(O)CCN(c2ccc(F)cc2)C1=O [A163] | > 10000 nM
O=C(NCc1ccco1)C1(O)CCN(c2ccccc2)C1=O (stereo not shown) [A64] | 1000 to 10000 nM
CCN(Cc1ccccc1)C(=O)[C@@]1(O)CCN(c2ccccc2)C1=O [A303] | > 10000 nM
CCCOCCNC(=O)[C@@]1(O)CCN(c2ccccc2)C1=O [A329] | 1000 to 10000 nM
O=C(NCc1cccc(Br)c1)[C@]1(O)CCN(c2ccc(F)cc2F)C1=O [A72] | > 10000 nM
O=C(NCc1cccc(-c2nccs2)c1)[C@@]1(O)CCN(c2ccccc2)C1=O [A36] | 1000 to 10000 nM
CCc1nnnn1CCNC(=O)[C@@]1(O)CCN(c2ccccc2)C1=O [A13] | > 10000 nM
CCc1nnc(CCNC(=O)[C@@]2(O)CCN(c3ccccc3)C2=O)s1 [A35] | > 10000 nM
CC(C)C(C)NC(=O)[C@@]1(O)CCN(c2ccccc2)C1=O (stereo partly shown) [A326] | 1000 to 10000 nM
O=C(NCc1cccc(Br)c1)[C@]1(O)CCN(c2cccc3ccccc23)C1=O [A53] | > 10000 nM
CCCC(C)NC(=O)[C@@]1(O)CCN(c2ccccc2)C1=O (stereo partly shown) [A298] | 1000 to 10000 nM
O=C(NCCc1cccs1)[C@@]1(Cl)CCN(c2ccccc2)C1=O [A61] | > 10000 nM
O=C(NCc1ccc(F)c(Cl)c1)[C@]1(O)CCN(c2ccccc2)C1=O [A74] | > 10000 nM
O=C(NCc1cccc(Br)c1)[C@]1(O)CCN(c2ccc(Br)cc2)C1=O [A76] | > 10000 nM
CN(C(=O)[C@@]1(O)CCN(c2ccccc2)C1=O)C1CCCC1 [A323] | 1000 to 10000 nM
CCc1nnn(CCNC(=O)[C@@]2(O)CCN(c3ccccc3)C2=O)n1 [A3] | 1000 to 10000 nM

The remaining lines, values ahead:

IC50 | SMILES
10 to 1000 nM | O=C(NCc1cccc(Br)c1)[C@@]1(O)CCN(c2ccccc2)C1=O [A1]
1000 to 10000 nM | CC1CCN(C(=O)[C@@]2(O)CCN(c3ccccc3)C2=O)CC1 [A316]
10 to 1000 nM | O=C(NCCc1cccs1)[C@@]1(O)CCN(c2ccc(Br)cc2)C1=O [A30]
10 to 1000 nM | O=C(NCc1cc(F)cc(Cl)c1)[C@@]1(O)CCN(C2CCCCC2)C1=O [A173]
1000 to 10000 nM | CC(C)CNC(=O)[C@@]1(O)CCN(c2ccccc2)C1=O [A305]
10 to 1000 nM | O=CN1CCc2cc(N3CC[C@](O)(C(=O)NCc4cc(F)cc(Cl)c4)C3=O)ccc21 [A282]
10 to 1000 nM | O=C(NCCc1cccs1)[C@]1(O)CCN(c2cccc(Cl)c2)C1=O [A40]
10 to 1000 nM | O=C(NCc1ccccc1C(F)(F)F)[C@@]1(O)CCN(c2ccccc2)C1=O [A302]
10 to 1000 nM | O=C(NCc1ccco1)[C@@]1(O)CCN(c2ccccc2)C1=O [A62]
10 to 1000 nM | O=C(NCc1cccc(C(F)(F)F)c1)[C@@]1(O)CCN(c2ccccc2)C1=O [A28]
10 to 1000 nM | N#Cc1cccc(CNC(=O)[C@@]2(O)CCN(c3ccccc3)C2=O)c1 [A215]
10 to 1000 nM | Cc1ccc(N2CC[C@](O)(C(=O)NCc3cc(F)cc(Cl)c3)C2=O)cn1 [A181]
1000 to 10000 nM | Cc1nccn1-c1cccc(CNC(=O)[C@@]2(O)CCN(c3ccccc3)C2=O)c1 [A9]
10 to 1000 nM | O=C(NCc1cccc(Br)c1)[C@@]1(O)CCN(c2ccc(F)cc2F)C1=O [A52]
10 to 1000 nM | O=C(NCCc1nccs1)[C@@]1(O)CCN(c2ccccc2)C1=O [A17]
10 to 1000 nM | CC(C)n1cc(N2CC[C@](O)(C(=O)NCCc3cc(F)cc(Cl)c3)C2=O)cn1 [A240]
10 to 1000 nM | O=C(NCCc1cccs1)[C@]1(O)CCN(c2ccc3ccccc3c2)C1=O [A69]
10 to 1000 nM | CCn1cc(N2CC[C@](O)(C(=O)NCc3cc(F)cc(F)c3)C2=O)cn1 [A211]
10 to 1000 nM | O=C(NCc1cccc(Cl)c1F)[C@@]1(O)CCN(c2ccccc2)C1=O [A20]
10 to 1000 nM | O=C(NCc1c(F)ccc(Cl)c1F)[C@@]1(O)CCN(c2ccccc2)C1=O [A21]
10 to 1000 nM | O=C(NCCc1cccs1)[C@@]1(O)CCN(c2cccc(Cl)c2)C1=O [A37, (S)-1-(3-chlorophenyl)-3-hydroxy-2-oxopyrrolidine-3-carboxylic acid (2-thiophen-2-ylethyl)amide]
10 to 1000 nM | CNC(=O)Cn1ccc2cc(N3CC[C@](O)(C(=O)NCc4cc(F)cc(Cl)c4)C3=O)ccc21 [A287]
10 to 1000 nM | O=C(NCc1cccc(Cl)c1F)[C@@]1(O)CCN(c2ccc(F)cc2)C1=O [A58]

IC50 | SMILES
10 to 1000 nM | O=C(NCc1cc(F)cc(C(F)(F)F)c1)[C@@]1(O)CCN(c2ccc(F)cc2)C1=O [A162]
10 to 1000 nM | Cn1cc(N2CC[C@](O)(C(=O)NCc3cccc(Cl)c3F)C2=O)cn1 [A170]
10 to 1000 nM | O=C(NCc1cc(F)cc(C(F)(F)F)c1)[C@@]1(O)CCN(c2ccccc2)C1=O [A164]
10 to 1000 nM | O=C(NCc1ccc(F)c(Cl)c1F)[C@@]1(O)CCN(c2ccccc2)C1=O [A46]
10 to 1000 nM | COC(=O)N1CCc2cc(N3CCC(O)(C(=O)NCc4cc(F)cc(Cl)c4)C3=O)ccc21 (stereo not shown) [A286]
10 to 1000 nM | O=C(NCc1cccc(Br)c1)[C@@]1(O)CCN(c2ccc(F)cc2)C1=O [A38]
10 to 1000 nM | O=C(NCc1cc(Br)ccc1F)[C@@]1(O)CCN(c2ccccc2)C1=O [A22]
10 to 1000 nM | O=C(NCc1cccc(Cl)c1F)[C@@]1(O)CCN(c2ccc(F)c(Cl)c2)C1=O [A56]
10 to 1000 nM | O=C(NCCc1cccs1)[C@@]1(O)CCN(c2ccc(F)cc2F)C1=O [A31]
10 to 1000 nM | O=C(NCCc1cccs1)[C@@]1(O)CCN(c2ccc(F)c(Cl)c2)C1=O [A51]
10 to 1000 nM | CCCCNC(=O)[C@@]1(O)CCN(c2ccccc2)C1=O [A310]
10 to 1000 nM | O=C(NCc1ccc(F)c(Cl)c1)[C@@]1(O)CCN(c2ccccc2)C1=O [A47]
10 to 1000 nM | O=C(NCc1cccc(Br)c1)[C@@]1(O)CCN(c2ccc(F)c(Cl)c2)C1=O [A50]
10 to 1000 nM | CC(=O)N1CCc2cc(N3CCC(O)(C(=O)NCCc4cc(F)cc(Cl)c4)C3=O)ccc21 (stereo not shown) [A261]
10 to 1000 nM | O=C(NCc1ccc(F)c(Br)c1)[C@@]1(O)CCN(c2ccccc2)C1=O [A23]
10 to 1000 nM | O=C(NCCc1cccs1)[C@@]1(O)CCN(c2ccc3ccccc3c2)C1=O [A55]
10 to 1000 nM | O=C(NC1COc2ccccc2C1)[C@@]1(O)CCN(c2ccccc2)C1=O (stereo partly shown) [A320]
10 to 1000 nM | O=C(NCc1cc(Cl)ccc1F)[C@@]1(O)CCN(c2ccccc2)C1=O [A49]
10 to 1000 nM | O=C(NCCc1cccs1)[C@@]1(O)CCN(c2ccc(F)cc2)C1=O [A32]
10 to 1000 nM | CC(C)CCNC(=O)C1(O)CCN(c2ccccc2)C1=O (stereo not shown) [A63]
10 to 1000 nM | CS(=O)(=O)N1CCc2cc(N3CCC(O)(C(=O)NCc4cc(F)cc(Cl)c4)C3=O)ccc21 (stereo not shown) [A253]
10 to 1000 nM | CS(=O)(=O)c1ccc(N2CC[C@](O)(C(=O)NCc3cc(F)cc(Cl)c3)C2=O)cc1 [A260]
10 to 1000 nM | O=C(NCc1cccc(Br)c1)[C@@]1(O)CCN(c2ccc3ccccc3c2)C1=O [A54]
